For experiment [1], the system named is Wnt/β-catenin signaling (β-catenin activity) in SW480 cell line. Kind of experiment: Cell-based Wnt agonist screening, TCF luciferase reporter, SW480 (TCF-FL). Further details: species or system human. The following applies: % of LiCl (20 mM); for Emax at 30 µM / Emax at 120 µM / Emax at 10 µM / Emax at 1 µM: Homo sapiens, 24 h, read-out: Max. Activity (%); for Emax at 30 µM: Con. 30 μM; for Emax at 120 µM: Con. 120 μM; for Emax at 10 µM: Con. 10 μM; for Emax at 1 µM: Con. 1 μM. The essentials: (§1)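 HEK293 and SW480 lines stably carried a 5X TCF firefly luciferase reporter under G418 selection. Cells (8,000–15,000/well, RPMI 1640 with 5% FBS) were grown 24 h, then treated with compound for 24 h. Luciferase activity was expressed as percent of the 20 mM LiCl positive control.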

The test system of experiment [2] is ST-2, a murine bone marrow stromal T cell. Description: Differentiation of ST2 cell line into osteoblasts, alkaline phosphatase activity. In kind it is cell-based. The following applies: Mus musculus, 96 h; ST-2 cells, 11 μM compound, 4 days; control treated only with ascorbic acid and β-glycerolphosphate = 100; read-out: ALP Activity (% Control). As to the method: The derivatives synthesized according to the present invention were assayed for their ability to differentiate stem cells into osteoblasts. In this regard, ST-2, a murine bone marrow stromal T cell, was used to measure the activity of bone-specific alkaline phosphatase, a marker of early-stage osteoblast differentiation. In detail, the cell line was cultured in an MEM supplemented with penicillin-streptomycin (100 Units/mL) and heat-inactivated 5% fetal bovine serum under standard culture conditions (5% CO2, 37° C., 100% relative humidity). […] The suspension was diluted with the same medium to adjust the cell count to 5,000˜10,000 cells per well, and was moved in a 96-well microtiter, subsequently. After being incubated for 24 hrs, the cells were treated in a medium containing 50 μg/ml of ascorbic acid and 5 mM of β-glycerolphosphate with various concentrations of the isoxazole derivatives synthesized in Preparation Examples. During incubation for one to nine days, the Alkaline phosphatase activity was analyzed using a […] Assay kit (Promega, U.S.A.) according to the protocol described in the manual provided by the manufacturer. The activities were measured in cells which had been incubated at 11 μM of each of the compounds for 4 days. Data on the activities of the isoxazole derivatives synthesized are given in Tables 44 to 47 and are expressed as percentages of ALP relative to that measured in the control, which was treated only with ascorbic acid and β-glycerolphosphate. ALP activities according to the concentrations of Derivative (1) are depicted in FIG. 5.

The test system of experiment [3] is Wnt/β-catenin signaling (β-catenin activity) in HEK293 cell line. Description: Cell-based Wnt agonist screening, TCF luciferase reporter, HEK293 (TCF-FL). Further details: species or system human. The following applies: % of LiCl (20 mM); for Emax at 120 µM: Conc. 120 μM. A digest of the protocol: as §1
Setting [4] is: Homo sapiens, HEK293, 24 h, 24 h, read-out: Max. Activity (%).

Regarding `O=C(NCCn1cccn1)c1cc(-c2ccco2)on1` [Derivative (39), 5-furan-2-yl-isoxazole-3-carboxylic acid (2-pyrazol-1-yl-ethyl)-amide], the Emax at 30 µM in experiment [1] was determined as 344%. Moreover, the activity at 11 µM in experiment [2] was 190%.

For `O=C(NCCn1cnnn1)c1cc(-c2ccco2)on1` [Derivative (43), 5-furan-2-yl-isoxazole-3-carboxylic acid (2-tetrazol-1-yl-ethyl)-amide], in experiment [1], the Emax at 120 µM was 357%. Moreover, the activity at 11 µM in experiment [2] is 455%.

Consider `Cc1nccn1CCCNC(=O)c1cc(-c2ccco2)on1` [Derivative (44), 5-furan-2-yl-isoxazole-3-carboxylic acid [3-(2-methyl-imidazol-1-yl)-propyl]-amide], for which the Emax at 120 µM in experiment [1] came out at 657%. The activity at 11 µM in experiment [2] worked out at 997%.

Take `O=C(NCCCn1cnnn1)c1cc(-c2ccco2)on1` [Derivative (52), 5-furan-2-yl-isoxazole-3-carboxylic acid (3-tetrazol-1-yl-propyl)-amide]: in experiment [2], the activity at 11 µM amounted to 438%.

For `O=C(NCCCn1ccnc1)c1cc(-c2cccc([N+](=O)[O-])c2)on1` [Derivative (113), 5-(3-nitro-phenyl)-isoxazole-3-carboxylic acid (3-imidazol-1-yl-propyl)-amide], the Emax at 120 µM in experiment [3] (setting [4]) and in experiment [1] was 46% throughout.

With `Nc1cccc(-c2cc(C(=O)NCCCn3ccnc3)no2)c1` [Derivative (119), 5-(3-amino-phenyl)-isoxazole-3-carboxylic acid (3-imidazol-1-yl-propyl)-amide], the Emax at 30 µM in experiment [3] (Homo sapiens, HEK293, 24 h, 24 h, Conc. 30 μM, read-out: Max. Activity (%)) is below 20%. Further, the Emax at 120 µM in experiment [3] (setting [4]) and in experiment [1] was 43% each time.

`O=C(NCCc1ccc(O)cc1)c1cc(-c2cccs2)on1` [Derivative (141), 5-thiophen-2-yl-isoxazole-3-carboxylic acid [2-(4-hydroxy-phenyl)-ethyl]-amide]: in experiment [1], the Emax at 120 µM worked out at 519%. The activity at 11 µM in experiment [2] is 790%.

In the case of `Cn1cccc1-c1cc(C(=O)NCCCn2ccnc2)no1` [Derivative (149), 5-(1-methyl-1H-pyrrol-2-yl)-isoxazole-3-carboxylic acid (3-imidazol-1-yl-propyl)-amide], the Emax at 30 µM in experiment [1] is 70%. For the same compound, in experiment [2], the activity at 11 µM came to 275%.

With `Cn1cccc1-c1cc(C(=O)NCCCn2cncn2)no1` [Derivative (150)], the Emax at 30 µM in experiment [1] is 78%. The activity at 11 µM in experiment [2] was 328%.

For `Cn1cccc1-c1cc(C(=O)NCCn2cncn2)no1` [Derivative (151), 5-(1-methyl-1H-pyrrol-2-yl)-isoxazole-3-carboxylic acid (2-[1,2,4]triazol-1-yl-ethyl)-amide], in experiment [1], the Emax at 30 µM was 41%. The activity at 11 µM in experiment [2] worked out at 151%.

With `O=C(NCCn1cncn1)c1cc(-c2ccoc2)on1` [Derivative (154), 5-furan-3-yl-isoxazole-3-carboxylic acid (2-[1,2,4]-triazol-1-yl-ethyl)-amide], the Emax at 120 µM in experiment [1] stood at 113%. Also, in experiment [2], the activity at 11 µM came to 310%.

Regarding `O=C(NCCn1ccnc1)c1cc(-c2ccsc2)on1` [Derivative (157), 5-thiophen-3-yl-isoxazole-3-carboxylic acid (2-imidazol-1-yl-ethyl)-amide], in experiment [1], the Emax at 30 µM is 871%. Further, the activity at 11 µM in experiment [2] came to 809%.

As for `O=C(NCCCn1cncn1)c1cc(-c2ccc[nH]2)on1` [Derivative (159), 5-(1H-pyrrol-2-yl)-isoxazole-3-carboxylic acid (3-[1,2,4]triazol-1-yl-propyl)-amide], the Emax at 30 µM in experiment [1] was determined as 128%. Besides, in experiment [2], the activity at 11 µM worked out at 130%.

Turning to `O=C(NCCCn1ccnc1)c1cc(-c2ccc[nH]2)on1` [Derivative (160), 5-(1H-pyrrol-2-yl)-isoxazole-3-carboxylic acid (3-imidazol-1-yl-propyl)-amide], the Emax at 120 µM in experiment [1] was found to be 146%. Besides, the activity at 11 µM in experiment [2] was determined as 158%.

As for `O=C(NCCCn1ccnc1)c1cc(N2CCOCC2)on1` [Derivative (161), 5-morpholin-4-yl-isoxazole-3-carboxylic acid (3-imidazol-1-yl-propyl)-amide], in experiment [1], the Emax at 120 µM was found to be 33%. In experiment [2], the activity at 11 µM is 89%.

Consider `O=C(NCCCn1cncn1)c1cc(N2CCOCC2)on1` [Derivative (162), 5-morpholin-4-yl-isoxazole-3-carboxylic acid (3-[1,2,4]-triazol-1-yl-propyl)-amide], for which, in experiment [1], the Emax at 10 µM was 30%. In experiment [2], the activity at 11 µM amounted to 60%.

On to `O=C(NCCn1cncn1)c1cc(N2CCOCC2)on1` [Derivative (163), 5-morpholin-4-yl-isoxazole-3-carboxylic acid (2-[1,2,4]-triazol-1-yl-ethyl)-amide], for which the Emax at 120 µM in experiment [1] came out at 34%. Also, the activity at 11 µM in experiment [2] came to 166%.

In the case of `O=C(NCCCn1ccnc1)c1cc(C2CCCCC2)on1` [Derivative (164), 5-cyclohexyl-3-isoxazole-3-carboxylic acid (3-imidazol-1-yl-propyl)-amide], the Emax at 120 µM in experiment [1] was 55%. For the same compound, in experiment [2], the activity at 11 µM turned out to be 241%.

On to `O=C(NCCCn1cncn1)c1cc(C2CCCCC2)on1` [Derivative (165), 5-cyclohexyl-3-isoxazole-3-carboxylic acid (3-[1,2,4]-triazol-1-yl-propyl)-amide], for which, in experiment [1], the Emax at 30 µM is 45%. Besides, the activity at 11 µM in experiment [2] amounted to 92%.

Turning to `CC(C)(C)c1cc(C(=O)NCCCn2ccnc2)no1` [Derivative (167), 5-tert-butyl-3-isoxazole-3-carboxylic acid (3-imidazol-1-yl-propyl)-amide], the Emax at 120 µM in experiment [1] was found to be 37%. The activity at 11 µM in experiment [2] turned out to be 276%.

Regarding `CC(C)(C)c1cc(C(=O)NCCCn2cncn2)no1` [Derivative (168), 5-tert-butyl-3-isoxazole-3-carboxylic acid (3-[1,2,4]-triazol-1-yl-propyl)-amide], in experiment [1], the Emax at 10 µM was 40%. Besides, the activity at 11 µM in experiment [2] is 97%.

Turning to `O=C(NCCCn1ccnc1)c1cc(-c2cc3ccccc3o2)on1` [Derivative (169), 5-benzofuran-2-yl-isoxazole-3-carboxylic acid (3-imidazol-1-yl-propyl)-amide], the Emax at 1 µM in experiment [1] stood at 43%. In addition, the activity at 11 µM in experiment [2] was 83%.

With `O=C(NCCCn1cncn1)c1cc(-c2cc3ccccc3o2)on1` [Derivative (170), 5-benzofuran-2-yl-isoxazole-3-carboxylic acid (3-[1,2,4]triazol-1-yl-propyl)-amide], the Emax at 30 µM in experiment [1] was determined as 46%. Also, the activity at 11 µM in experiment [2] was 74%.

Take `O=C(NCCn1cncn1)c1cc(-c2cc3ccccc3o2)on1` [Derivative (171), 5-benzofuran-2-yl-isoxazole-3-carboxylic acid (2-[1,2,4]triazol-1-yl-ethyl)-amide]: the Emax at 120 µM in experiment [1] stood at 43%. For the same compound, in experiment [2], the activity at 11 µM was 74%.

As for `O=C(NCCN1CCOCC1)c1cc(-c2ccco2)on1` [Derivative (175), 5-furan-2-yl-isoxazole-3-carboxylic acid (2-morpholin-4-yl-ethyl)-amide], the Emax at 1 µM in experiment [1] stood at 383%. Moreover, the activity at 11 µM in experiment [2] was 767%.

As to `O=C(NCCN1CCNCC1)c1cc(-c2ccco2)on1` [Derivative (176), 5-furan-2-yl-isoxazole-3-carboxylic acid (2-piperazin-1-yl-ethyl)-amide], the Emax at 30 µM in experiment [1] is 93%. Also, the activity at 11 µM in experiment [2] worked out at 179%.

In the case of `CC(=O)N1CCN(CCNC(=O)c2cc(-c3ccco3)on2)CC1` [Derivative (178), 5-furan-2-yl-isoxazole-3-carboxylic acid [2-(4-acetyl-piperazin-1-yl)-ethyl]-amide], the Emax at 120 µM in experiment [1] worked out at 301%. In experiment [2], the activity at 11 µM amounted to 475%.

On to `O=C(NCCN1CCN(c2ccc(F)cc2)CC1)c1cc(-c2ccco2)on1` [Derivative (179), 5-furan-2-yl-isoxazole-3-carboxylic acid {2-[4-(4-fluorophenyl)-piperazin-1-yl]-ethyl}-amide], for which, in experiment [1], the Emax at 10 µM is 73%. Also, the activity at 11 µM in experiment [2] turned out to be 356%.

For `[Cl-].[Li+]` [LiCl, lithium chloride, reference compound], the “Max. Activity (%)” value in experiment [3] (Conc. 20000 μM) and in experiment [1] (Con. 20000 μM) was 100% throughout.

Values taken from patent publication US7915297B2, “Isoxazole derivatives and use thereof” (SK Holdings Co., Ltd., priority 2005, dated 2011).
